From patent US20080249303A1 (WYETH, priority 2007, published 2008)

Assays:
[1] = Bazedoxifene acetate recovery in different extraction media, XRD peak area after tablet extraction; assay type: physicochemical; details: XRD peak at 12.8° (Form A)
[2] = as above; assay type: physicochemical; details: 1.0 mL/tablet, XRD peak at 12.8° (Form A)
Description: The coatings of three of the tablets were removed. The resulting tablets were then placed in a small beaker. About 3.0 ml of extraction medium solution was added to the beaker to produce a mixture. The mixture was broken up and stirred for about 5 to about 15 minutes. The resulting mixture was filtered and washed with an additional 3.0 ml of extraction medium solution three times to produce a solid (filtrand). The recovered solid was dried at about 40° C. overnight. The dried solid was grinded and pressed into pellets for XRD measurement. This procedure can be scaled up or down for various quantities of BZA tablets. This procedure was employed for the samples found in Table 1.
X-Ray Powder Diffraction analyses were carried out on samples prepared according to Examples 1 and 2 using a Bruker D8 Discover X-ray diffractometer with GADDS. The diffractometer power was set at 40 kV and 40 mA. The collimator diameter of the instrument was about 0.8 mm and the detector-to-sample distance was set at about 30 cm. The X-ray incident angle relative to the pellet/tablet surface was about 40 and the detection angle relative to the pellet/tablet surface was about 16±0.2°. Data were collected at about 120 minutes to about 240 minutes.
The following table illustrates the results of experiments using the extraction methods of Example 1. The extractions were performed using different extraction media and the results were measured in terms of peak area of bazedoxifene using XRD as described in Example 3.

- Peak Area of Bazedoxifene ([1]; Experiment 1, Millipore Water, pH 5.9, 2.50 mL/tablet): 3.3 count · degree
- Peak Area of Bazedoxifene ([1]; Experiment 2, Millipore Water, pH 5.9, 1.67 mL/tablet): 4.9 count · degree
- Peak Area of Bazedoxifene ([1]; Experiment 3, Diluted Acetic Acid, pH 1.96, 2.50 mL/tablet): No Detection
- Peak Area of Bazedoxifene ([1]; Experiment 5, Millipore Water, pH 5.9, 0.83 mL/tablet): 11.6 count · degree
- Peak Area of Bazedoxifene ([2]; Experiment 6, 0.50 M Ammonium Acetate, pH 6.20): 22.7 count · degree
- Peak Area of Bazedoxifene ([2]; Experiment 7, 0.125 M Ammonium Acetate + 0.375 M Sodium Acetate, pH 6.85): 23.1 count · degree
- Peak Area of Bazedoxifene ([2]; Experiment 8, 0.05 M Ammonium Acetate + 0.45 M Sodium Acetate, pH 7.18): 32.0 count · degree
- Peak Area of Bazedoxifene ([2]; Experiment 9, 0.50 M Sodium Acetate, pH 8.34): 36.2 count · degree
- Peak Area of Bazedoxifene ([2]; Experiment 10, 0.50 M Sodium Chloride, pH 9.20 adjusted by Sodium Hydroxide): 21.8 count · degree
SMILES: Cc1c(-c2ccc(O)cc2)n(Cc2ccc(OCCN3CCCCCC3)cc2)c2ccc(O)cc12 [Bazedoxifene acetate, 1-[4-(2-azepan-1-yl-ethoxy)-benzyl]-2-(4-hydroxy-phenyl)-3-methyl-1H-indol-5-ol acetic acid]
